Molecular target: Mitogen-activated protein kinase 1 (Homo sapiens) (UniProt P28482)
Test: phospho-ERK1/2 level reduction in colorectal cells, late-stage follow-up, counter-screen for KLF5 inhibitor project, SW620 cells, chemiluminescent western blot, powder samples (AID 588668)
Conditions: phospho-ERK1/2 western blot, 24 h, at 10 µM

Chain of Mitogen-activated protein kinase 1 (Homo sapiens) (P28482 whole entry, looked up): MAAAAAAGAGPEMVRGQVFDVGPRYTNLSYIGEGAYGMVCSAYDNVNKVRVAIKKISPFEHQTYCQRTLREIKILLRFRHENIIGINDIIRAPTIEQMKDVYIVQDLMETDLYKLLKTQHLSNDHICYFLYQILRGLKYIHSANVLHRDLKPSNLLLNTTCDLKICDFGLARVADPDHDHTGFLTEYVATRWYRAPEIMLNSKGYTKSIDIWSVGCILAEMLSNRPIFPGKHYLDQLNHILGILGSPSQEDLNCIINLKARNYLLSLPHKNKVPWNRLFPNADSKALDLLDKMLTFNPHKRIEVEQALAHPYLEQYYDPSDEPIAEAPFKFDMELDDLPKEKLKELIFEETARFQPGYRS

Row | Structure (SMILES) | phospho-ERK1/2 inhibition (% vs DMSO), active compounds read high [%]
1 | CN(C(=O)CNC(=O)/C=C/c1cccc(Cl)c1)C1CCS(=O)(=O)CC1 | 48.2
2 | CN(C(=O)COC(=O)/C=C/c1cccc([N+](=O)[O-])c1)C1CCS(=O)(=O)C1 (stereo not drawn) | 35.6
3 | CN(C(=O)CNC(=O)/C=C/c1cccc(Cl)c1)C1CCS(=O)(=O)C1 (stereo not drawn) | 31.3

— PubChem BioAssay AID588668 (The Scripps Research Institute Molecular Screening Center, 2011)
